Patent US20230073777A1, “CYCLIC-AMP RESPONSE ELEMENT BINDING PROTEIN (CBP) AND/OR ADENOVIRAL E1A BINDING PROTEIN OF 300 KDA (P300) DEGRADATION COMPOUNDS AND METHODS OF USE” (CULLGEN (SHANGHAI), INC., priority 2019, published 2023)
Like-named read-outs stand apart in the source and are kept apart here.

Experiments:
[1] = target: P300 (Homo sapiens, UniProt Q09472); experiment: Immunoblotting of P300 protein levels in LNCaP or 22RV1 cells; type: cell-based; design: LNCaP or 22RV1 cells that express CBP/P300 proteins were treated with GNE-781 or the bivalent compounds; endogenous in cells; host or cells: LNCaP (clone FGC) or 22RV1 cells; conditions: read-out: Degradation (10 nM)
Summary of the method: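 P300/CBP levels quantified by chemiluminescent immunoblot band densitometry, normalized against tubulin or vinculin loading controls. Lysates came from LNCaP or 22RV1 cells exposed to compounds or DMSO vehicle for indicated times.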

[2] = tested on: LNCaP cells; experiment: LNCaP cell viability assay (CellTiter-Glo); type: cell-based; conditions: Homo sapiens, 72 h; LNCaP prostate cancer cell viability inhibition, 3 days, CellTiter-Glo (Table 3)
Summary of the method: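 Three-day treatment of LNCaP cells (5000 per well) across a 12-point, 3-fold dilution series starting at 10 μM. ATP luminescence (CellTiter-Glo) relative to untreated controls gave dose-response curves fitted nonlinearly for IC50.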

[3] = percentage of inhibition of p300 at 10 nM (Table 3)

Sequence of P300 (Q09472 whole entry): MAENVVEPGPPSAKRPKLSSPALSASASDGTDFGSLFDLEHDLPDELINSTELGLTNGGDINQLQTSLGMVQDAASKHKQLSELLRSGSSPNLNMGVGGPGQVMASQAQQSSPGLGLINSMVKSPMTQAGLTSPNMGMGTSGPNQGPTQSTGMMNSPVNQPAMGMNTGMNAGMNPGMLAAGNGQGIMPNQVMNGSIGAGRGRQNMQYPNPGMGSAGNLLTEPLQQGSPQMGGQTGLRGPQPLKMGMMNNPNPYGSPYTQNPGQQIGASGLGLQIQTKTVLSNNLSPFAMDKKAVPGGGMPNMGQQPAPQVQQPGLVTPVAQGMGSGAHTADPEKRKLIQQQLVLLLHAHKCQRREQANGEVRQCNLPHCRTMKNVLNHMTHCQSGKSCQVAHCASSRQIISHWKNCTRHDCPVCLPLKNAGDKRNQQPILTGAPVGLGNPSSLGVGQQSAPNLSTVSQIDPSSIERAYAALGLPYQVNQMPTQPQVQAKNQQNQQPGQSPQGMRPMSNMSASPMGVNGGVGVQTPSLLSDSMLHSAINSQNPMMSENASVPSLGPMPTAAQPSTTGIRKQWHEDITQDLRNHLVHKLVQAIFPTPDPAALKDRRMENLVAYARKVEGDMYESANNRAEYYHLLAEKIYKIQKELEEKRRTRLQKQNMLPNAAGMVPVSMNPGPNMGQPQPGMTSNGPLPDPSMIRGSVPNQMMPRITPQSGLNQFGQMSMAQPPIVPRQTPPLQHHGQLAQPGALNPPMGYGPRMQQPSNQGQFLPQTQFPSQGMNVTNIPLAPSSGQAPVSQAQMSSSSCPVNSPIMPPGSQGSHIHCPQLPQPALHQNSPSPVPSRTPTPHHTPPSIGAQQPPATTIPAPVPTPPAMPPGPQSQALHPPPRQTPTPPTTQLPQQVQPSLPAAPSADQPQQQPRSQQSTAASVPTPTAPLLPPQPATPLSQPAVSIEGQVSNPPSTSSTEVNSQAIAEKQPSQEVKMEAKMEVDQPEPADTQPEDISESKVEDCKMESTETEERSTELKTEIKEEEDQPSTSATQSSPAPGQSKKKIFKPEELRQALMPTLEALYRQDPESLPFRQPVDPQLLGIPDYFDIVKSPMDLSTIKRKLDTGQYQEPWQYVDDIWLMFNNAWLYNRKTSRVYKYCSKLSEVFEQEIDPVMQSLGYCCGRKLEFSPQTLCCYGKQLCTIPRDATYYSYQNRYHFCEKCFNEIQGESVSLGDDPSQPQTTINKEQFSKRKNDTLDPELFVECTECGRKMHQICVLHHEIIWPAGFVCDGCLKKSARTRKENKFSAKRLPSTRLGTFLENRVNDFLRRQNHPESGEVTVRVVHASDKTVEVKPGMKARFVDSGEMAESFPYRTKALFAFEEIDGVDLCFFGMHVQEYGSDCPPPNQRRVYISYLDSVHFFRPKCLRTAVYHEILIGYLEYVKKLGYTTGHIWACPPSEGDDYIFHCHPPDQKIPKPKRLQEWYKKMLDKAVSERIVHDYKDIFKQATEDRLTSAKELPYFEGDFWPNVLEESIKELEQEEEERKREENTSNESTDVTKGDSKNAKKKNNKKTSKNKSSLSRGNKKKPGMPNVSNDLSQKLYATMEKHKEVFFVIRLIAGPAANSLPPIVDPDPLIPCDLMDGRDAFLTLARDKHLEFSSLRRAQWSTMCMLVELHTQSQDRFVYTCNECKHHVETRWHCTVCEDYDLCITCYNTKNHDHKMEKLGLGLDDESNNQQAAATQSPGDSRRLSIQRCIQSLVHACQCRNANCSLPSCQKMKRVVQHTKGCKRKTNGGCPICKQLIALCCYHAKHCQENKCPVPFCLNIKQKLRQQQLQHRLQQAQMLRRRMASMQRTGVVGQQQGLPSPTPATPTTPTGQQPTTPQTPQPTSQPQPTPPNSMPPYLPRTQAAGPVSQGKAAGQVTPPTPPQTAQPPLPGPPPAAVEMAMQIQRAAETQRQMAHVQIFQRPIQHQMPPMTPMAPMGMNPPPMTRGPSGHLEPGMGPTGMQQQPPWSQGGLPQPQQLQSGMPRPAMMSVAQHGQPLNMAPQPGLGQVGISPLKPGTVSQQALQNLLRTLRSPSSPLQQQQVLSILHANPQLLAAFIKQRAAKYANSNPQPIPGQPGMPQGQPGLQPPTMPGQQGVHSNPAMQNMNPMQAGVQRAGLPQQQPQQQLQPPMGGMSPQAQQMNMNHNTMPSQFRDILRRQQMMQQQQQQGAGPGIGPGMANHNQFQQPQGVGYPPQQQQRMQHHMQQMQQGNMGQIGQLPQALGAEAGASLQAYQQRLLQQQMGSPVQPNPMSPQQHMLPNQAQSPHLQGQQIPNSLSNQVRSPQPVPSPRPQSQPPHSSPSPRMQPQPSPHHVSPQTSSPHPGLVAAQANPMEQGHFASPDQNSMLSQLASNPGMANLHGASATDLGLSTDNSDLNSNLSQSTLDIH

SMILES	inhibition at 0.01 µM [1, 3]	IC50 [2]	inhibition at 0.01 µM [1]
CC(=O)N1CCc2c(c(N3CCCc4cc(-c5cnn(C)c5)c(C(F)F)cc43)nn2C2CCN(C(=O)CN3CC(CNc4cccc5c4C(=O)N(C4CCC(=O)NC4=O)C5=O)C3)CC2)C1 (stereo not drawn) [P-158, 4-(((1-(2-(4-(5-Acetyl-3-(7-(difluoromethyl)-6-(1-methyl-1H-pyrazol-4-yl)-3,4-dihydroquinolin-1(2H)-yl)-4,5,6,7-tetrahydro-1H-pyrazolo[4,3-c]pyridin-1-yl)piperidin-1-yl)-2-oxoethyl)azetidin-3-yl)methyl)amino)-2-(2,6-dioxopiperidin-3-yl)isoindoline-1,3-dione]	< 20%	90.1 nM	
CC(=O)N1CCc2c(c(N3CCCc4cc(-c5cnn(C)c5)c(C(F)F)cc43)nn2C2CCN(C(=O)CCCCCCCNc3cccc4c3n(C)c(=O)n4C3CCC(=O)NC3=O)CC2)C1 (stereo not drawn) [P-159, 3-(4-((8-(4-(5-acetyl-3-(7-(difluoromethyl)-6-(1-methyl-1H-pyrazol-4-yl)-3,4-dihydroquinolin-1(2H)-yl)-4,5,6,7-tetrahydro-1H-pyrazolo[4,3-c]pyridin-1-yl)piperidin-1-yl)-8-oxooctyl)amino)-3-methyl-2-oxo-2,3-dihydro-1H-benzo[d]imidazol-1-yl)piperidine-2,6-dione]	> 80%	0.2 nM	
CC(=O)N1CCc2c(c(N3CCCc4cc(-c5cnn(C)c5)c(C(F)F)cc43)nn2C2CCN(C(=O)CCCCCCCCNc3cccc4c3n(C)c(=O)n4C3CCC(=O)NC3=O)CC2)C1 (stereo not drawn) [P-160, 3-(4-((9-(4-(5-acetyl-3-(7-(difluoromethyl)-6-(1-methyl-1H-pyrazol-4-yl)-3,4-dihydroquinolin-1(2H)-yl)-4,5,6,7-tetrahydro-1H-pyrazolo[4,3-c]pyridin-1-yl)piperidin-1-yl)-9-oxononyl)amino)-3-methyl-2-oxo-2,3-dihydro-1H-benzo[d]imidazol-1-yl)piperidine-2,6-dione]	> 80%	0.2 nM	
CC(=O)N1CCc2c(c(N3CCCc4cc(-c5cnn(C)c5)c(C(F)F)cc43)nn2C2CCN(C(=O)CCCCCCCNc3ccc4c(c3)n(C)c(=O)n4C3CCC(=O)NC3=O)CC2)C1 (stereo not drawn) [P-161]	> 80%	0.1 nM	
CC(=O)N1CCc2c(c(N3CCCc4cc(-c5cnn(C)c5)c(C(F)F)cc43)nn2C2CCN(C(=O)CCCCCCCCNc3ccc4c(c3)n(C)c(=O)n4C3CCC(=O)NC3=O)CC2)C1 (stereo not drawn) [P-162, 3-(5-((9-(4-(5-acetyl-3-(7-(difluoromethyl)-6-(1-methyl-1H-pyrazol-4-yl)-3,4-dihydroquinolin-1(2H)-yl)-4,5,6,7-tetrahydro-1H-pyrazolo[4,3-c]pyridin-1-yl)piperidin-1-yl)-9-oxononyl)amino)-3-methyl-2-oxo-2,3-dihydro-1H-benzo[d]imidazol-1-yl)piperidine-2,6-dione]	> 80%	0.3 nM	
CC(=O)N1CCc2c(c(N3CCCc4cc(-c5cnn(C)c5)c(C(F)F)cc43)nn2C2CCN(C(=O)CCCCCCCCn3c(=O)n(C4CCC(=O)NC4=O)c4ccccc43)CC2)C1 (stereo not drawn) [P-163, 3-(3-(9-(4-(5-acetyl-3-(7-(difluoromethyl)-6-(1-methyl-1H-pyrazol-4-yl)-3,4-dihydroquinolin-1(2H)-yl)-4,5,6,7-tetrahydro-1H-pyrazolo[4,3-c]pyridin-1-yl)piperidin-1-yl)-9-oxononyl)-2-oxo-2,3-dihydro-1H-benzo[d]imidazol-1-yl)piperidine-2,6-dione]		0.9 nM	> 80%
CC(=O)N1CCc2c(c(N3CCCc4cc(-c5cnn(C)c5)c(C(F)F)cc43)nn2C2CCN(C(=O)CCCCCCCCCn3c(=O)n(C4CCC(=O)NC4=O)c4ccccc43)CC2)C1 (stereo not drawn) [P-164, 3-(3-(10-(4-(5-acetyl-3-(7-(difluoromethyl)-6-(1-methyl-1H-pyrazol-4-yl)-3,4-dihydroquinolin-1(2H)-yl)-4,5,6,7-tetrahydro-1H-pyrazolo[4,3-c]pyridin-1-yl)piperidin-1-yl)-10-oxodecyl)-2-oxo-2,3-dihydro-1H-benzo[d]imidazol-1-yl)piperidine-2,6-dione]	> 80%	1 nM	
CC(=O)N1CCc2c(c(N3CCCc4cc(-c5cnn(C)c5)c(C(F)F)cc43)nn2C2CCN(C(=O)CCCCCNc3cccc4nc(C)n(C5CCC(=O)NC5=O)c(=O)c34)CC2)C1 (stereo not drawn) [P-165, 3-(5-((6-(4-(5-Acetyl-3-(7-(difluoromethyl)-6-(1-methyl-1H-pyrazol-4-yl)-3,4-dihydroquinolin-1(2H)-yl)-4,5,6,7-tetrahydro-1H-pyrazolo[4,3-c]pyridin-1-yl)piperidin-1-yl)-6-oxohexyl)amino)-2-methyl-4-oxoquinazolin-3(4H)-yl)piperidine-2,6-dione]	50 to 80%	123 nM	
CC(=O)N1CCc2c(c(N3CCCc4cc(-c5cnn(C)c5)c(C(F)F)cc43)nn2C2CCN(Cc3ccc(COc4cccc5c4CN(C4CCC(=O)NC4=O)C5=O)cc3)CC2)C1 (stereo not drawn) [P-166, 3-(4-((4-((4-(5-acetyl-3-(7-(difluoromethyl)-6-(1-methyl-1H-pyrazol-4-yl)-3,4-dihydroquinolin-1(2H)-yl)-4,5,6,7-tetrahydro-1H-pyrazolo[4,3-c]pyridin-1-yl)piperidin-1-yl)methyl)benzyl)oxy)-1-oxoisoindolin-2-yl)piperidine-2,6-dione]	> 80%	0.3 nM	
CC(=O)N1CCc2c(c(N3CCCc4cc(-c5cnn(C)c5)c(C(F)F)cc43)nn2C2CCN(CCN3CCC(COc4cccc5c4C(=O)N(C4CCC(=O)NC4=O)C5=O)CC3)CC2)C1 (stereo not drawn) [P-167, 4-((1-(2-(4-(5-Acetyl-3-(7-(difluoromethyl)-6-(1-methyl-1H-pyrazol-4-yl)-3,4-dihydroquinolin-1(2H)-yl)-4,5,6,7-tetrahydro-1H-pyrazolo[4,3-c]pyridin-1-yl)piperidin-1-yl)ethyl)piperidin-4-yl)methoxy)-2-(2,6-dioxopiperidin-3-yl)isoindoline-1,3-dione]		92 nM	< 20%
CC(=O)N1CCc2c(c(N3CCCc4cc(-c5cnn(C)c5)c(C(F)F)cc43)nn2C2CCN(C(=O)CN3CCC(COc4cccc5c4C(=O)N(C4CCC(=O)NC4=O)C5=O)CC3)CC2)C1 (stereo not drawn) [P-168, 4-((1-(2-(4-(5-Acetyl-3-(7-(difluoromethyl)-6-(1-methyl-1H-pyrazol-4-yl)-3,4-dihydroquinolin-1(2H)-yl)-4,5,6,7-tetrahydro-1H-pyrazolo[4,3-c]pyridin-1-yl)piperidin-1-yl)-2-oxoethyl)piperidin-4-yl)methoxy)-2-(2,6-dioxopiperidin-3-yl)isoindoline-1,3-dione]	< 20%	156 nM	
CC(=O)N1CCc2c(c(N3CCCc4cc(-c5cnn(C)c5)c(C(F)F)cc43)nn2C2CCN(C(=O)CN3CCN(CCc4cccc5c4C(=O)N(C4CCC(=O)NC4=O)C5=O)CC3)CC2)C1 (stereo not drawn) [P-169, 4-(2-(4-(2-(4-(5-Acetyl-3-(7-(difluoromethyl)-6-(1-methyl-1H-pyrazol-4-yl)-3,4-dihydroquinolin-1(2H)-yl)-4,5,6,7-tetrahydro-1H-pyrazolo[4,3-c]pyridin-1-yl)piperidin-1-yl)-2-oxoethyl)piperazin-1-yl)ethyl)-2-(2,6-dioxopiperidin-3-yl)isoindoline-1,3-dione]	< 20%	> 500 nM	
CC(=O)N1CCc2c(c(N3CCCc4cc(-c5cnn(C)c5)c(C(F)F)cc43)nn2C2CCN(C(=O)CN3CC(CCNc4cccc5c4C(=O)N(C4CCC(=O)NC4=O)C5=O)C3)CC2)C1 (stereo not drawn) [P-170, 4-((2-(1-(2-(4-(5-Acetyl-3-(7-(difluoromethyl)-6-(1-methyl-1H-pyrazol-4-yl)-3,4-dihydroquinolin-1(2H)-yl)-4,5,6,7-tetrahydro-1H-pyrazolo[4,3-c]pyridin-1-yl)piperidin-1-yl)-2-oxoethyl)azetidin-3-yl)ethyl)amino)-2-(2,6-dioxopiperidin-3-yl)isoindoline-1,3-dione]	20 to 50%	32.6 nM	
CC(=O)N1CCc2c(c(N3CCCc4cc(-c5cnn(C)c5)c(C(F)F)cc43)nn2C2CCN(C(=O)CC#CCCNc3cccc4c3C(=O)N(C3CCC(=O)NC3=O)C4=O)CC2)C1 (stereo not drawn) [P-171, 4-((6-(4-(5-Acetyl-3-(7-(difluoromethyl)-6-(1-methyl-1H-pyrazol-4-yl)-3,4-dihydroquinolin-1(2H)-yl)-4,5,6,7-tetrahydro-1H-pyrazolo[4,3-c]pyridin-1-yl)piperidin-1-yl)-6-oxohex-3-yn-1-yl)amino)-2-(2,6-dioxopiperidin-3-yl)isoindoline-1,3-dione]	20 to 50%	253 nM	
CC(=O)N1CCc2c(c(N3CCCc4cc(-c5cnn(C)c5)c(C(F)F)cc43)nn2C2CCN(C(=O)CN3CCOC(CCNc4cccc5c4C(=O)N(C4CCC(=O)NC4=O)C5=O)C3)CC2)C1 (stereo not drawn) [P-172, 4-((2-(4-(2-(4-(5-Acetyl-3-(7-(difluoromethyl)-6-(1-methyl-1H-pyrazol-4-yl)-3,4-dihydroquinolin-1(2H)-yl)-4,5,6,7-tetrahydro-1H-pyrazolo[4,3-c]pyridin-1-yl)piperidin-1-yl)-2-oxoethyl)morpholin-2-yl)ethyl)amino)-2-(2,6-dioxopiperidin-3-yl)isoindoline-1,3-dione]	20 to 50%	56.9 nM	
